The results in this text go back to US8445502B2, “Pharmaceutical formulations comprising salts of a protein kinase inhibitor and methods of using same” (Astex Pharmaceuticals, Inc., priority 2007, dated 2013).

“Also recorded” adds a separate entry of the source. A value given as a limit tells only on which side of the number the result lay.

The nature of one data set: in vivo. As to conditions: both, beagle, dog, iv.
Data set [1] is described as follows: Solubility of MP470.HCl in common solvents at room temperature. It is filed as physicochemical.
The test system of data set [2] is Erk phosphorylation in Panc-1 Pancreas Cancer Cells. Kind of data set: Erk phosphorylation after PMA stimulation. Format: cell-based. The following applies: PMA-stimulated cells; compared to PMA alone and PD98059; hydrochloride. From the text: FIG. 11 illustrates the Erk phosphorylation changes in Panc-1 Pancreas Cancer Cells after MP470 hydrochloride exposure
Regulation of Erk phosphorolation—MP470.HCl activity was screened against potential biomarkers, including proteins, such as Erk that are activated downstream of c-Kit. Erk was selected from potential candidate markers to evaluate changes in protein phosphorylation in treated cancer cell lines because MP470 appeared to regulate this event. […] Exposure to PMA is known to rapidly stimulate Erk phosphorylation and was used as a positive control.

Procedure for in vivo: The purpose of these studies was to determine the highest level of MP470 free base that can be administered intravenously to dogs without causing extreme illness, maximum tolerated dose (MTD). In both studies a single male and a single female beagle dog were injected intravenously with MP470.
In the second study we tested doses of 0.625, 1.25, 2.5, 5, 10, and 20 mg/kg MP470 in 1 male and 1 female beagle dog with 48-96 hrs between dose escalations, with the exception of 11 days between dose 5 and 6. Additionally, in this study approximately 5-10 second electrocardiograph (ECG) tracings in a lead II configuration were obtained from each dog prior to each dose, approximately 20 minutes after the start of dosing, and immediately after completion of dosing.

For `S=C(NCc1ccc2c(c1)OCO2)N1CCN(c2ncnc3c2oc2ccccc23)CC1` [MP470, 4-[1]benzofuro[3,2-d]pyrimidin-4-yl-N-(1,3-benzodioxol-5-ylmethyl)piperazine-1-carbothioamide], in “in vivo”, the MTD at 0.5 h worked out at 10 mg/kg.

The term Solubility denotes the dissolved amount per volume that the medium holds. Read a high Solubility as much dissolved substance. Regarding `Cl.S=C(NCc1ccc2c(c1)OCO2)N1CCN(c2ncnc3c2oc2ccccc23)CC1` [MP470.HCl, 4-[1]benzofuro[3,2-d]pyrimidin-4-yl-N-(1,3-benzodioxol-5-ylmethyl)piperazine-1-carbothioamide hydrochloride], the “Solubility” value in data set [1] (Benzyl alcohol) is 48000 µg/mL; in data set [1] (DMF) it was 9000 µg/mL; in data set [1] (DMSO), 17000 µg/mL; in data set [1] (Ethanol), 400 µg/mL; in data set [1] (Glycerol), 4000 µg/mL; in data set [1] (Methanol) it was 3000 µg/mL. Moreover, the “Solubility” value in data set [1] (Propylene glycol) was 4000 µg/mL. For the same compound, in data set [1] (Water), the “Solubility (mg/mL)” value is listed as “< detectable limit by HPLC”. The “level of Erk phosphorylation (P-Erk)” value in data set [2] was “reduced the level of Erk phosphorylation; also recorded: reduced the level of P-Erk below that of PD98059”.
